Source: patent EP0140958B1, “ONCOLYTIC DRUG COMBINATIONS” (ELFORD, Howard L., priority 1983, dated 1984)
Where a name gives a salt, the structure may show the parent alone.

Assays:
L-1210 leukemia = L-1210 leukemia transplanted tumor in mice, life span; type: in vivo; parameters: Mean Life Span: unit not given here; settings: for Percent Increase In Life Span: over controls; for increase in life span: summary of Tables I and II, drug by itself, any dose level
Procedure: In this procedure, L-1210 leukemia was maintained by weekly passage of 10^5 L-1210 cells intraperitoneally into DBA/2 mice. Diluted ascitic fluid, 0.1 ml. (10^5 cells), was administered up to female B6D2F, mice weighing about 20 g. Drugs were administered intraperitoneally to the animals. Injections containing doxorubicin were given only on day 2 and the 3,4-dihydroxybenzohydroxamic acid was given on days 2, 3 and 4.

L1210 leukemia = settings: from Elford et al. and van't Riet et al. publications; cited from earlier work

O=C(NO)c1ccc(O)c(O)c1 [3,4-dihydroxybenzohydroxamic acid]
Mean Life Span (L-1210 leukemia; Table 1, 275 Mg./Kg. intraperitoneally, days 2, 3 and 4, four mice per group): 12.75 | Percent Increase In Life Span (L-1210 leukemia; Table 1, 275 Mg./Kg. intraperitoneally, days 2, 3 and 4): 17% | Percent Cures (L-1210 leukemia; Table 1, 275 Mg./Kg. intraperitoneally, days 2, 3 and 4, survivors calculated at day 60): 0% | Mean Life Span (L-1210 leukemia; Table 1, 430 Mg./Kg. intraperitoneally, days 2, 3 and 4, four mice per group): 13.0 | Percent Increase In Life Span (L-1210 leukemia; Table 1, 430 Mg./Kg. intraperitoneally, days 2, 3 and 4): 19% | Percent Cures (L-1210 leukemia; Table 1, 430 Mg./Kg. intraperitoneally, days 2, 3 and 4, survivors calculated at day 60): 0% | Mean Life Span (L-1210 leukemia; Table 1, 645 Mg./Kg. intraperitoneally, days 2, 3 and 4, four mice per group): no better than control | Mean Life Span (L-1210 leukemia; Table 1, 645 Mg./Kg. intraperitoneally, days 2, 3 and 4, four mice per group, listed as 3,4-dihydroxy benzohydroxamic acid): 11.0 | Percent Increase In Life Span (L-1210 leukemia; Table 1, 645 Mg./Kg. intraperitoneally, days 2, 3 and 4): 1% | Percent Cures (L-1210 leukemia; Table 1, 645 Mg./Kg. intraperitoneally, days 2, 3 and 4, survivors calculated at day 60): 0% | Percent Increase In Life Span (L-1210 leukemia; Table II, 430 Mg./Kg. intraperitoneally, days 2, 3 and 4): 32% | Percent Cures (L-1210 leukemia; Table II, 430 Mg./Kg. intraperitoneally, days 2, 3 and 4, survivors calculated on day 35): 0% | Mean Life Span (L-1210 leukemia; Table II, 430 Mg./Kg. intraperitoneally, days 2, 3 and 4, three mice per group): 12 | Percent Increase In Life Span (L-1210 leukemia; Table II, 645 Mg./Kg. intraperitoneally, days 2, 3 and 4): 49% | Percent Cures (L-1210 leukemia; Table II, 645 Mg./Kg. intraperitoneally, days 2, 3 and 4, survivors calculated on day 35): 0% | Mean Life Span (L-1210 leukemia; Table II, 645 Mg./Kg. intraperitoneally, days 2, 3 and 4, three mice per group): 13.6 | increase in life span (L-1210 leukemia): very little increase in life span | activity against L1210 leukemia (L1210 leukemia): the most active

COc1cccc2c1C(=O)c1c(O)c3c(c(O)c1C2=O)C[C@@](O)(C(=O)CO)C[C@@H]3O[C@H]1C[C@H](N)[C@H](O)[C@H](C)O1 [Doxorubicin hydrochloride]
Mean Life Span (L-1210 leukemia; Table 1, 6 Mg./Kg. intraperitoneally, day 2, four mice per group): 14.5 | Percent Increase In Life Span (L-1210 leukemia; Table 1, 6 Mg./Kg. intraperitoneally, day 2): 33% | Percent Cures (L-1210 leukemia; Table 1, 6 Mg./Kg. intraperitoneally, day 2, survivors calculated at day 60): 0% | Mean Life Span (L-1210 leukemia; Table 1, 17 Mg./Kg. intraperitoneally, day 2, four mice per group): 28.5 | Percent Increase In Life Span (L-1210 leukemia; Table 1, 17 Mg./Kg. intraperitoneally, day 2): 161% | Percent Cures (L-1210 leukemia; Table 1, 17 Mg./Kg. intraperitoneally, day 2, survivors calculated at day 60): 0% | Mean Life Span (L-1210 leukemia; Table 1, 29 Mg./Kg. intraperitoneally, day 2, four mice per group): 27.75 | Percent Increase In Life Span (L-1210 leukemia; Table 1, 29 Mg./Kg. intraperitoneally, day 2): 155% | Percent Cures (L-1210 leukemia; Table 1, 29 Mg./Kg. intraperitoneally, day 2, survivors calculated at day 60): 0% | Percent Increase In Life Span (L-1210 leukemia; Table II, 6 Mg./Kg. intraperitoneally, day 2): 46% | Percent Cures (L-1210 leukemia; Table II, 6 Mg./Kg. intraperitoneally, day 2, survivors calculated on day 35): 0% | Mean Life Span (L-1210 leukemia; Table II, 6 Mg./Kg. intraperitoneally, day 2, three mice per group): 13.3 | Percent Increase In Life Span (L-1210 leukemia; Table II, 17 Mg./Kg. intraperitoneally, day 2): 76% | Percent Cures (L-1210 leukemia; Table II, 17 Mg./Kg. intraperitoneally, day 2, survivors calculated on day 35): 0% | Mean Life Span (L-1210 leukemia; Table II, 17 Mg./Kg. intraperitoneally, day 2, three mice per group): 16 | Percent Increase In Life Span (L-1210 leukemia; Table II, 29 Mg./Kg. intraperitoneally, day 2): 189% | Percent Cures (L-1210 leukemia; Table II, 29 Mg./Kg. intraperitoneally, day 2, survivors calculated on day 35): 33% | Mean Life Span (L-1210 leukemia; Table II, 29 Mg./Kg. intraperitoneally, day 2, three mice per group): 26.3 | increase in life span (L-1210 leukemia): substantial increase in life span | survivor (L-1210 leukemia; summary of Tables, by itself, at the highest dose level tested): one
